Where two headings read alike, the source gives them in different places.
Assays:
[1] = pH 6
[2] = SNAC solubility vs SNAC control, hydrotrope 200 mg/mL, pH 6
[3] = hydrotrope 200 mg/mL in water, pH 6, room temperature, 4 hours incubation

SMILES	Fold increase in solubility [2]	SNAC concentration [3] [mg/mL]	effect on SNAC solubility (FIG. 1) [1]	Fold increase in solubility (pH 6)	SNAC concentration (pH 6) [mg/mL]
O=C(O[C@@H]1Cc2c(O)cc(O)cc2O[C@@H]1c1cc(O)c(O)c(O)c1)c1cc(O)c(O)c(O)c1 [Epigallocatechin gallate]	9.6	5.66			
CCN(CC)C(=O)c1cccnc1 [N,N diethyl nicotinamide]	7.8	4.58			
CN(C)C(=O)c1ccccc1 [N,N dimethyl benzamide]	38	22.46			
NC(=O)c1cccnc1 [Nicotinamide]			dose dependent effect		
O=C([O-])c1ccccc1O.[Na+] [Sodium salicylate]				2.7	1.59
NC(N)=O [Urea]	1.3	0.77			
